Measured values taken from US20190369111A1, “MOLECULAR KINETICS EVALUATION METHOD AND SCREENING METHOD” (Tokyo University of Science Foundation, priority 2016, published 2019).
Non-standard residues stand in square brackets, D forms with d. Residues, ends and D or L forms follow the SMILES beside them. Nle = CCCC[C@H](N)C(=O)O

Legend:
[1] = biological target: T1, catalytic subunit β1 of a proteasome (caspase-like activity) (Homo sapiens, UniProt P28072); conditions: reported by Kaiser, M. et al., 2004; patent's result consistent; cited from earlier work
T1 construct: purchased Bioscience

[2] = biological target: T2, DHFR protein (Mus musculus, UniProt P00375); assay: Degradation of DHFR protein in each tissue of mouse after administration, Western blot analysis; format: in vivo
T2 construct: administered intraperitoneally to C57BL/6J wild-type mice; from tissue; host or cells: C57BL/6J wild-type mice: liver, kidneys, heart
T2 sequence (P00375 1-187): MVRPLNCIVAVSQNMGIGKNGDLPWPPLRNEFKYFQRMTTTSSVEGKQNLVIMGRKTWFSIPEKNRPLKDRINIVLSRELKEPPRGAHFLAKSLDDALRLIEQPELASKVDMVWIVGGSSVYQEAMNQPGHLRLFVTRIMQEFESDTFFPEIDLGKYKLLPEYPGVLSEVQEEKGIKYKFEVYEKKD
Description: MTX-CANDDY_MLN was dissolved in DMSO immediately before administration, and then dissolved in corn oil (Code No. 25606-55, Nacalai Tesque) so that the concentration of DMSO was 10 vol %, and then a dose of 50 mg/kg body weight or 100 mg/kg body weight was administered intraperitoneally to C57BL/6J wild-type mice (7 weeks old, male) (CLEA Japan, Inc.) (n=3). […] As a control, an injection carrier (corn oil containing 10 vol % DMSO) was used. The mice were kept under an environment of ad libitum access to food and water. The mice were dissected under deep anesthesia by Somnopentyl (Kyoritsu Seiyaku Corporation) 24 hours after administration. Abdominal section was performed, and then the liver, kidneys, and heart were sequentially extracted and flash frozen in liquid nitrogen. Each tissue frozen in liquid nitrogen was stored in a deep freezer at −80° C.
The frozen tissues (0.04 g) were each frozen and triturated, and then 980 μL of 1×TKM tissue lysis buffer (50 mM triethanolamine (pH 7.8), 50 mM KCl, 5 mM MgCl2, 0.25 M sucrose, 1 mM PMSF, protein inhibitors cocktail-EDTA free (Code No. 03969-21, Nacalai Tesque, Inc.), 1 mM DTT, and 5 μL/mL recombinant RNase inhibitor (40 U/μL, Cat No. 2313A, Lot No. K8402DA, TAKARA Bio)) were added, and dissolved by rotation for 15 minutes (1 rpm, 25° C.). Then, the resultant product was subjected to centrifugation (at 3000 rpm×15 minutes, 4° C.), and the supernatants (each tissue extract) were collected. The concentration of proteins in each tissue extract was quantified with a spectrophotometer using each tissue extract that had been diluted 20 times using DEPC-treated water.
Each tissue extract collected was subjected to Western blot analysis. An SDS-PAGE gel was prepared using TGX™ FastCast™ Acrylamide Kit, 12% (Bio-Rad). Electrophoresis samples were prepared in a 6×SDS-PAGE sample buffer (62.5 mM Tris-HCl pH 6.8, 2% SDS, 5% 2-mercaptoethanol, 10% glycerol, 0.25% BPB), and placed on a heat block at 95° C. for 5 minutes. The electrophoresis samples prepared were applied at 50 μg/well for detection of GAPDH, and applied at 100 μg/well for other detection. Electrophoresis was performed at 160 V for 60 minutes (electrophoresis buffer; 195 mM glycine, 25 mM Tris).
After electrophoresis, proteins were transferred to a PVDF membrane (Immobion™-P, Millipore) under conditions of 100 V and 1.5 hours using a tank-type blotting device and a transfer buffer (25 mM Tris-HCl, 195 mM glycine, 0.01% SDS, 15% methanol). […] Subsequently, the membrane was treated with a chemiluminescence reagent Immobilon™ Western (Millipore), and then chemiluminescence was detected using a lumino image analyzer LAS-3000 (FUJIFILM Corporation). Detected bands were quantified with an image processing software ImageJ (NIH).

[3] = biological target: T3, endogenous DHFR protein (Homo sapiens, UniProt P00374); assay: Degradation of endogenous DHFR protein in HeLa cells, Western blot analysis; format: cell-based; conditions: 50 μM, 100 μM or 200 μM, 16 hours after addition
T3 construct: degradation (knockdown) of an endogenous DHFR protein in HeLa cells; endogenous in cells; host or cells: HeLa cells
T3 sequence (P00374 1-187): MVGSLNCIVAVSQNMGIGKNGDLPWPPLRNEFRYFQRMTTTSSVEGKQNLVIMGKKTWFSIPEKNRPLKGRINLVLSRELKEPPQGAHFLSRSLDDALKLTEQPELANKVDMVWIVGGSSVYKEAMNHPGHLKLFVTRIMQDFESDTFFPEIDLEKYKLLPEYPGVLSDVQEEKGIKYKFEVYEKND

[4] = biological target: T4, ecDHFR protein (Escherichia coli, UniProt P0ABQ4); format: cell-based, human; conditions: HeLa cells
T4 construct: expressed in transfected cells; host or cells: HeLa cells, transient transfection with pMIR-DsRed-IRES-ecDHFR-HA-GFP

[5] = biological target: T4, ecDHFR protein; format: cell-based, human; conditions: HeLa cells, 24 hours after addition, vs control (DMSO)
[6] = biological target: T5, 20S proteasome (Homo sapiens, UniProt P28072+P28074+Q99436); assay: Affinity with a proteasome evaluated from 20S proteasome assay kit; format: biochemical; conditions: suggested from concentration dependent inhibitory activity against β1, β2, β5
T5 construct: purchased Bioscience
Description: In Reference Example 2, the proteasome inhibitory activity of TMP-CANDDY_DMT and the affinity of TMP-CANDDY_DMT with a proteasome were evaluated. As a positive control, MG-132 as a proteasome inhibitor was used.
(§1) For evaluation, 20S Proteasome StressXpress™ Assay Kit Gold (Bioscience) was used. AMC was measured by using Multi-Detection Microplate Reader (Synergy HT, BIO-TEK). The AMC was produced by cleaving the C-terminus of an AMC-binding proteasome fluorescence substrate specific to β subunits of a 20S proteasome, including β5 (chymotrypsin-like activity), β2 (trypsin-like activity), and β1 (caspase-like activity). The measuring wavelengths were 360 nm for excitation light (Ex.), and 460 nm for fluorescence (Em.).
(§2) In Reference Example 11, as in Reference Example 4, a proteasome inhibitory activity of TMP-CANDDY_ALLN and an affinity of TMP-CANDDY_ALLN with a proteasome were evaluated.

[7] = biological target: T6, catalytic subunit β5 of the proteasome (chymotrypsin-like activity) (Homo sapiens, UniProt P28074); assay: 20S proteasome inhibitory activity, catalytic subunit β5; format: biochemical; conditions: AMC fluorescence substrate
T6 construct: purchased Bioscience
Description: as §1, §2

[8] = biological target: T7, catalytic subunit β2 of the proteasome (trypsin-like activity) (Homo sapiens, UniProt Q99436); assay: 20S proteasome inhibitory activity, catalytic subunit β2; format: biochemical; conditions: AMC fluorescence substrate
T7 construct: purchased Bioscience
Description: as §1, §2

[9] = biological target: T1, catalytic subunit β1 of a proteasome (caspase-like activity); assay: 20S proteasome inhibitory activity, catalytic subunit β1; format: biochemical; conditions: AMC fluorescence substrate
Description: as §1, §2

## CCCC[C@@H](C=O)NC(=O)[C@H](CC(C)C)NC(=O)[C@H](CC(C)C)NC(C)=O [ALLN, Calpain inhibitor I] (Ac-Leu-Leu-[Nle]-aldehyde)
[1]
  inhibition of β1 (caspase-like activity): not inhibited

## CC(C)C[C@H](NC(=O)CNC(=O)c1cc(Cl)ccc1Cl)C(=O)NCCCCCCNC(=O)CC[C@H](NC(=O)c1ccc(N(C)Cc2cnc3nc(N)nc(N)c3n2)cc1)C(=O)O [MTX-CANDDY_MLN]
[2]; intraperitoneal 50 or 100 mg/kg body weight, 24 hours after administration, heart
  amount of DHFR protein in heart: reduction in the amount of the DHFR protein was not found
[2]; intraperitoneal 50 or 100 mg/kg body weight, 24 hours after administration, kidneys
  amount of DHFR protein in kidneys: reduced in a concentration dependent manner
[2]; intraperitoneal 50 or 100 mg/kg body weight, 24 hours after administration, liver
  amount of DHFR protein in liver: reduced in a concentration dependent manner
[2]; suggested from DHFR degradation in tissues
  transfer property to tissues (molecular kinetics): showed a higher transfer property in the liver and kidneys, as compared with the heart
[3]
  amount of endogenous DHFR protein: decreased in a concentration dependent manner

## COc1nc(NCCCCCCNC(=O)COc2c(OC)cc(Cc3cnc(N)nc3N)cc2OC)nc(OC)n1 [TMP-CANDDY_DMT]
[4]; 24 hours after addition, cycloheximide 50 μg/mL added after 12 hours
  amount of ecDHFR protein: the amount of the ecDHFR protein was reduced
[4]; both TMP-CANDDY_DMT and bortezomib added, compared with TMP-CANDDY_DMT alone
  degradation of ecDHFR protein when bortezomib is added together: degradation of the ecDHFR protein was inhibited
[5]
  degradation (knockdown) of ecDHFR protein (shift of GFP/DsRed ratio graph): degradation of the ecDHFR protein was induced
[6]
  affinity with a proteasome: moderate affinity with a proteasome
[7]
  proteasome inhibitory activity against β5 (chymotrypsin-like activity): significantly lower proteasome inhibitory activity as compared with MG-132
[8]
  proteasome inhibitory activity against β2 (trypsin-like activity): significantly lower proteasome inhibitory activity as compared with MG-132
[9]
  proteasome inhibitory activity against β1 (caspase-like activity): significantly lower proteasome inhibitory activity as compared with MG-132
